Data reported in patent US20250064886A1, “CARDIOVASCULAR AND CEREBROVASCULAR DRUG AND USE THEREOF” (HANGZHOU ADAMERCK PHARMLABS INC., priority 2021, published 2025).
Marks after values point to notes of the source that are not given here.

Key:
[1] = test system: vascular endothelial-injury thrombosis model in zebrafish; assay: Preventative effect of compound (1) on vascular endothelial injury induced thrombosis in zebrafish (Example 3); assay type: in vivo; conditions: for Cardiac erythrocyte staining intensity (pixels, mean ± SE): n = 10
Method: Experimental method: Wild-type AB strain zebrafish were treated with 4 μg/mL punatinib for 18 h to establish vascular endothelial-injury thrombosis model in zebrafish. 150 of 5 dpf wild-type AB strain zebrafish were randomly selected and placed in six-well plates with 30 fish per well (experimental group). The zebrafish were injected with compound (1) at a dose of 2.06 ng/tail, and 6.18 ng/tail, and the positive control drug acetylsalicylic acid was given by dissolving it in water with a concentration of 30 µg/mL, while the normal control group (i.e., zebrafish treated with standard dilution water) and the model control group were set up, and the volume of each well (experimental group) was 3 mL. Except for normal control group, the remaining experimental groups were all given Punatinib by dissolving it in water to induce vascular endothelial injury thrombosis model in zebrafish. The zebrafish were co-treated with compound (1) and punatinib for a period of time under incubation condition at 28° C., and then stained with o-dianisidine. After staining, 10 zebrafish were randomly selected from each group and photographed under the microscope. The intensity of cardiac erythrocyte staining in zebrafish was analyzed using NIS-Elements D 3.10 advanced image-processing software, and the preventative effect of compound (I) on vascular endothelial injury thrombosis was evaluated based on the statistical results of cardiac erythrocyte staining intensity. The preventative effect on thrombosis is calculated as follows: […]
Statistical analysis were performed using Analysis of Variance and Dunnett's t-test, and p<0.05 indicates a significant difference, providing a representative experimental plot.

[2] = test system: rats with focal cerebral ischemia (MCAO)/reperfusion; assay: Preventative administration, cerebral ischemia-reperfusion injury MCAO/R in rats (Example 5); assay type: in vivo, rat; conditions: preventative; for Cerebral infarction rate (%): tail vein 3 days
Method: Experimental method: SD rats were randomly divided into six groups, i.e., pseudosurgery group, model control group, positive control drug ozagre (6 mg/kg) group, and administration drug compound (1) high-dose (67.5 mg/kg) group, medium-dose (22.5 mg/kg) group, and low-dose (7.5 mg/kg) group. The administration group was pre-administered via tail vein injection, while the pseudosurgery group and model control group were given equal volumes of physiological saline once a day for 3 consecutive days. 10 minutes after the last administration, a rat MCAO/R model was established and performed reperfusion 2 hours post ischemia. 24 hours after MCAO reperfusion, the neurobehavioral scores of rats were performed to determine their neurological function; the cerebral infarction rate and cerebral water content in rats were determined using 2,3,5-triphenyltetrazolium chloride (TTC) staining method.

[3] = test system: iron content in Erastin-induced neuronal cells; assay: Iron content (PGSK probe) in Erastin-induced neuronal cells (Example 8); assay type: cell-based, rat; conditions: Erastin 50 μM
Method: (§1) Experimental method: Primary neuron cells were incubated in a medium containing Erastin (final concentration of 50 μM) for 24 hours, and then incubated in a medium containing different concentrations of the test drug and Erastin (final concentration of 50 μM) for another 24 hours. After incubation, Real time PCR was used to detect mRNA expression of GPX4 in each group of cells, CCK8 assay was used to detect cell viability in each group of cells, C11-BODIPY probe method was used to detect intracellular lipid ROS levels in each group of cells, and PGSK probe method was used to detect iron content in cells.
(§2) The experimental data were expressed in means±SD, and statistical differences between groups were determined using one-way ANOVA and Tukey's test, with p-values less than 0.05 considered significant.
After incubation, the PGSK probe method was used to detect the intracellular iron content. The results were presented as Mean±SD. Compared with the control group, ***p<0.0001; Compared with the model group, #p<0.05, ##p<0.01.

GPX4 mRNA = GPX4 mRNA expression (real time PCR) in Erastin-induced neuronal cells (Example 8); assay type: cell-based, rat; conditions: Erastin 50 μM
Method: as §1, §2
After incubation, real time PCR was used to detect the mRNA expression of GPX4 in each group of cells. The results were presented as Mean±SD. Compared with the control group, ***p<0.0001; Compared with the model group, #p<0.05, […].

[4] = test system: vascular inflammation in high-glucose and high-fat zebrafish; assay: Regressive effect on vascular inflammation in high-glucose and high-fat zebrafish (Example 9); assay type: in vivo
Method: Experimental method: 360 tails of 5 dpf macrophage fluorescent zebrafish were randomly selected and placed in beakers with 30 tails in each beaker, compound (1), compound (3), and compound (5) were given intravenously, and the positive control group was given atorvastatin calcium by dissolving it in water at a concentration of 30 μg/mL, while the normal control group (fish farming water-treated zebrafish) and the model control group were set up, and the volume of each beaker (experimental group) was 25 mL. Except for the normal control group, all other groups were given high-lipids and high-sucrose feed by dissolving it in water. Compound (1), compound (3) and compound (5) group were co-treated with high-lipids and high-sucrose feed for 30 h. The treatment was carried out up to 9 dpf, and 10 zebrafish were randomly selected from each experimental group to collect the intensity of the macrophage fluorescence within the tail vein and around the tail vein of the zebrafish under fluorescence microscope, and the results of the statistical analysis were used to evaluate the regressive effect of compound (1), compound (3), compound (5) on zebrafish vascular inflammation in the high sugar and high fat model.

In the case of CC(=O)N[C@H](CSCC1OC2OC3C(CSC[C@@H](NC(C)=O)C(=O)[O-])OC(OC4C(CSC[C@@H](NC(C)=O)C(=O)[O-])OC(OC5C(CSC[C@@H](NC(C)=O)C(=O)[O-])OC(OC6C(CSC[C@@H](NC(C)=O)C(=O)[O-])OC(OC7C(CSC[C@@H](NC(C)=O)C(=O)[O-])OC(OC8C(CSC[C@@H](NC(C)=O)C(=O)[O-])OC(OC9C(CSC[C@@H](NC(C)=O)C(=O)[O-])OC(OC1C(O)C2O)C(O)C9O)C(O)C8O)C(O)C7O)C(O)C6O)C(O)C5O)C(O)C4O)C(O)C3O)C(=O)[O-].[Na+].[Na+].[Na+].[Na+].[Na+].[Na+].[Na+].[Na+] (stereo partly drawn) [Compound (1)], the “Thromboprophylactic effect (%)” value ([1]; 2.06 ng/tail) is reported as 83%, the “Cardiac erythrocyte staining intensity (pixels, mean ± SE)” value ([1]; 2.06 ng/tail) is reported as 4601 ± 265 pixels and the “Cardiac erythrocyte staining intensity (pixels, mean ± SE)” value ([1]; 2.06 ng/tail, listed as compound (1)) is reported as 4601 pixels. The “Thromboprophylactic effect (%)” value ([1]; 6.18 ng/tail) was 99%, the “Cardiac erythrocyte staining intensity (pixels, mean ± SE)” value ([1]; 6.18 ng/tail) was 5044 ± 345 pixels and the “Cardiac erythrocyte staining intensity (pixels, mean ± SE)” value ([1]; 6.18 ng/tail, listed as compound (1)) was 5044 pixels. The “Cerebral infarction rate (%)” value ([2]; 7.5 mg/kg (low-dose)) was 15.18 ± 4.74 %, the Behavioral score ([2]; 7.5 mg/kg) was 2.00 ± 1.07 and the “Cerebral water content (%)” value ([2]; 7.5 mg/kg) was 80.16 ± 1.03%. For the same compound, the “Cerebral infarction rate (%)” value ([2]; 22.5 mg/kg (medium-dose)) was 13.93 ± 6.99 %, the Behavioral score ([2]; 22.5 mg/kg) was 1.87 ± 0.64 and the “Cerebral water content (%)” value ([2]; 22.5 mg/kg) was 79.01 ± 1.27 %. For the same compound, the “Cerebral infarction rate (%)” value ([2]; 67.5 mg/kg (high-dose)) was 12.28 ± 10.29 %, the Behavioral score ([2]; 67.5 mg/kg) was 1.50 ± 0.53 and the “Cerebral water content (%)” value ([2]; 67.5 mg/kg) was 78.23 ± 1.84 %. The “Iron content (PGSK probe)” value ([3]; 1 μM, control = 100, PGSK fluorescence, weaker = more iron) was 61.06 ± 7.12, the “Iron content (PGSK probe)” value ([3]; 2.5 μM) was 66.81 ± 7.21 and the “Iron content (PGSK probe)” value ([3]; 5 μM) was 71.85 ± 4.47. The “Iron content (PGSK probe)” value ([3]; 10 μM) was 77.52 ± 12.88^#, the “Iron content (PGSK probe)” value ([3]; 20 μM) was 82.16 ± 6.86^## and the “Iron content (PGSK probe)” value ([3]; 40 μM) was 86.69 ± 8.01^##. The “Expression of GPX4 mRNA” value (GPX4 mRNA; 1 μM, control about 1.00, Mean±SD) was 0.4845 ± 0.06^, the “Expression of GPX4 mRNA” value (GPX4 mRNA; 2.5 μM) was 0.5759 ± 0.07^ and the “Expression of GPX4 mRNA” value (GPX4 mRNA; 5 μM) was 0.6469 ± 0.08^#. The “Expression of GPX4 mRNA” value (GPX4 mRNA; 10 μM) was 0.7093 ± 0.15^##, the “Expression of GPX4 mRNA” value (GPX4 mRNA; 20 μM) was 0.7664 ± 0.08^## and the “Expression of GPX4 mRNA” value (GPX4 mRNA; 40 μM) was 0.8503 ± 0.06^##. For the same compound, the “Anti-inflammatory effect (%)” value ([4]; 222 ng/tail intravenous) was 27*** %, the “Fluorescence intensity of perivascular macrophage (pixels, Mean ± SE)” value (shortened to “Fluorescence intensity … (pixels, Mean ± SE)”) ([4]; 222 ng/tail intravenous) was 134308 ± 6117 pixels and the “Anti-inflammatory effect (%)” value ([4]; 667 ng/tail intravenous) was 37*** %. The “Fluorescence intensity … (pixels, Mean ± SE)” value ([4]; 667 ng/tail intravenous) was 116848 ± 5036 pixels, the “Anti-inflammatory effect (%)” value ([4]; 2000 ng/tail intravenous) was 41*** % and the “Fluorescence intensity … (pixels, Mean ± SE)” value ([4]; 2000 ng/tail intravenous) was 108154 ± 4723 pixels.
